Experimental data reported in patent publication US20130072470A1 (ABBVIE INC., priority 2011, published 2013).

Target: T1, Jak3 enzyme (aa 811-1103) (Homo sapiens, UniProt P52333)
T1 construct: Jak3 enzyme (aa 811-1103); expressed in SF9 cells as a GST fusion; GST; made in house; host or cells: SF9 insect cells
Assay: In vitro Jak3 kinase activity measured by time-resolved fluorescence resonance energy transfer (trFRET)
Format: biochemical
Details: ATP 0.001 mM
Method: In Vitro Jak3 Kinase Activity Measured by Time-Resolved Fluorescence Resonance Energy Transfer (trFRET)
Varying concentrations of inhibitor were added to an assay well containing: Jak3 enzyme (aa 811-1103; expressed in SF9 cells as a GST fusion and purified by glutathione affinity chromatography; 3 nM), peptide substrate (biotin-TYR2, Sequence: Biotin-(Ahx)-AEEEYFFLFA-amide; 2 μM), MOPSO pH 6.5 (50 mM), MgCl2 (10 mM), MnCl2 (2 mM), DTT (2.5 mM), BSA (0.01% w/v), Na3VO4 (0.1 mM) and ATP (0.001 mM). After about 60 min incubation at rt, the reaction was quenched by addition of EDTA (final concentration: 100 mM) and developed by addition of revelation reagents (final approximate concentrations: 30 mM HEPES pH 7.0, 0.06% BSA, 0.006% Tween-20, 0.24 M KF, 80 ng/mL PT66K (europium labeled anti-phosphotyrosine antibody cat #61T66KLB Cisbio, Bedford, Mass.) and 0.8 μg/mL SAXL (Phycolink streptavidin-allophycocyanin acceptor, cat #PJ52S, Prozyme, San Leandro, Calif.). The developed reaction was incubated in the dark either at about 4° C., for about 14 h or for about 60 min at rt, then read via a time-resolved fluorescence detector (Rubystar, BMG) using a 337 nm laser for excitation and emission wavelength of 665 nm. Within the linear range of the assay, the observed signal at 665 nm is directly related to phosphorylated product and used to calculate the IC50 values.

T1 sequence (P52333 811-1103): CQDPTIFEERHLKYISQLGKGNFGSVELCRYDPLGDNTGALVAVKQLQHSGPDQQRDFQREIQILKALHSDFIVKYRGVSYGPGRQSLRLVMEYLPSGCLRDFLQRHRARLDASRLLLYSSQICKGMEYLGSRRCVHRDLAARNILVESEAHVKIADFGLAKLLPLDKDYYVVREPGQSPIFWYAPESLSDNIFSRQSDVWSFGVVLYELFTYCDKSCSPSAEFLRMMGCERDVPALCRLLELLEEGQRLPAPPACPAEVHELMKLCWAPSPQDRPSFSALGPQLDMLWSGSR

| IC50 (Table B) [µM] | IC50 [µM] | SMILES |
| --- | --- | --- |
| 1 to 10 | – | CC[C@@H]1C[C@H](NC(=O)c2occc2C)C[C@@H]1c1nnc2cnc3[nH]ccc3n12 [compound 79, N-((1S,3R,4S)-3-ethyl-4-(6H-pyrrolo[2,3-e][1,2,4]triazolo[4,3-a]pyrazin-1-yl)cyclopentyl)-3-methylfuran-2-carboxamide] |
| 1 to 10 | – | CC[C@@H]1C[C@H](NC(=O)c2cc(C3CC3)on2)C[C@@H]1c1nnc2cnc3[nH]ccc3n12 [compound 59, 5-cyclopropyl-N-((1S,3R,4S)-3-ethyl-4-(6H-pyrrolo[2,3-e][1,2,4]triazolo[4,3-a]pyrazin-1-yl)cyclopentyl)isoxazole-3-carboxamide] |
| 1 to 10 | – | CC[C@@H]1C[C@H](NC(=O)c2noc3c2CCCC3)C[C@@H]1c1nnc2cnc3[nH]ccc3n12 [compound 72, N-((1S,3R,4S)-3-ethyl-4-(6H-pyrrolo[2,3-e][1,2,4]triazolo[4,3-a]pyrazin-1-yl)cyclopentyl)-4,5,6,7-tetrahydrobenzo[d]isoxazole-3-carboxamide] |
| 1 to 10 | – | CC[C@@H]1C[C@H](NC(=O)c2ccoc2)C[C@@H]1c1nnc2cnc3[nH]ccc3n12 [compound 56, N-((1S,3R,4S)-3-ethyl-4-(6H-pyrrolo[2,3-e][1,2,4]triazolo[4,3-a]pyrazin-1-yl)cyclopentyl)furan-3-carboxamide] |
| 1 to 10 | – | CC[C@@H]1C[C@H](NC(=O)CCc2ccc(C)o2)C[C@@H]1c1nnc2cnc3[nH]ccc3n12 [compound 69, N-((1S,3R,4S)-3-ethyl-4-(6H-pyrrolo[2,3-e][1,2,4]triazolo[4,3-a]pyrazin-1-yl)cyclopentyl)-3-(5-methylfuran-2-yl)propanamide] |
| 1 to 10 | – | CC[C@@H]1C[C@H](NC(=O)c2ccoc2C)C[C@@H]1c1nnc2cnc3[nH]ccc3n12 [compound 52, N-((1S,3R,4S)-3-ethyl-4-(6H-pyrrolo[2,3-e][1,2,4]triazolo[4,3-a]pyrazin-1-yl)cyclopentyl)-2-methylfuran-3-carboxamide] |
| 1 to 10 | – | CC[C@@H]1C[C@H](NC(=O)c2ocnc2C)C[C@@H]1c1nnc2cnc3[nH]ccc3n12 [compound 51, N-((1S,3R,4S)-3-ethyl-4-(6H-pyrrolo[2,3-e][1,2,4]triazolo[4,3-a]pyrazin-1-yl)cyclopentyl)-4-methyloxazole-5-carboxamide] |
| 1 to 10 | – | CC[C@@H]1C[C@H](NC(=O)c2cc(C)on2)C[C@@H]1c1nnc2cnc3[nH]ccc3n12 [compound 49, N-((1S,3R,4S)-3-ethyl-4-(6H-pyrrolo[2,3-e][1,2,4]triazolo[4,3-a]pyrazin-1-yl)cyclopentyl)-5-methylisoxazole-3-carboxamide] |
| 1 to 10 | – | CC[C@@H]1C[C@H](NC(=O)c2cocn2)C[C@@H]1c1nnc2cnc3[nH]ccc3n12 [compound 63, N-((1S,3R,4S)-3-ethyl-4-(6H-pyrrolo[2,3-e][1,2,4]triazolo[4,3-a]pyrazin-1-yl)cyclopentyl)oxazole-4-carboxamide] |
| 1 to 10 | – | CC[C@@H]1C[C@H](NC(=O)c2coc3c2C(=O)CCC3)C[C@@H]1c1nnc2cnc3[nH]ccc3n12 [compound 58, N-((1S,3R,4S)-3-ethyl-4-(6H-pyrrolo[2,3-e][1,2,4]triazolo[4,3-a]pyrazin-1-yl)cyclopentyl)-4-oxo-4,5,6,7-tetrahydrobenzofuran-3-carboxamide] |
| 1 to 10 | – | CC[C@@H]1C[C@H](NC(=O)Cc2noc3ccccc23)C[C@@H]1c1nnc2cnc3[nH]ccc3n12 [compound 71, 2-(benzo[d]isoxazol-3-yl)-N-((1S,3R,4S)-3-ethyl-4-(6H-pyrrolo[2,3-e][1,2,4]triazolo[4,3-a]pyrazin-1-yl)cyclopentyl)acetamide] |
| 1 to 10 | – | CC[C@@H]1C[C@H](NC(=O)c2cnco2)C[C@@H]1c1nnc2cnc3[nH]ccc3n12 [compound 82, N-((1S,3R,4S)-3-ethyl-4-(6H-pyrrolo[2,3-e][1,2,4]triazolo[4,3-a]pyrazin-1-yl)cyclopentyl)oxazole-5-carboxamide] |
| 1 to 10 | – | CC[C@@H]1C[C@H](NC(=O)c2ccco2)C[C@@H]1c1nnc2cnc3[nH]ccc3n12 [compound 78, N-((1S,3R,4S)-3-ethyl-4-(6H-pyrrolo[2,3-e][1,2,4]triazolo[4,3-a]pyrazin-1-yl)cyclopentyl)furan-2-carboxamide] |
| < 1 | – | CC[C@@H]1C[C@H](NC(=O)CCc2ccco2)C[C@@H]1c1nnc2cnc3[nH]ccc3n12 [compound 53, N-((1S,3R,4S)-3-ethyl-4-(6H-pyrrolo[2,3-e][1,2,4]triazolo[4,3-a]pyrazin-1-yl)cyclopentyl)-3-(furan-2-yl)propanamide] |

More lines, now with the values behind:

| SMILES | IC50 (Table B) [µM] | IC50 [µM] |
| --- | --- | --- |
| CC[C@@H]1C[C@H](NC(=O)CNC(=O)c2ccco2)C[C@@H]1c1nnc2cnc3[nH]ccc3n12 [compound 48] | 1 to 10 | – |
| C[C@@H]1C[C@H](NC(=O)c2cccnn2)C[C@@H]1c1cnc2cnc3[nH]ccc3n12 [Example #2, N-((1S,3S,4R)-3-(3H-imidazo[1,2-a]pyrrolo[2,3-e]pyrazin-8-yl)-4-methylcyclopentyl)pyridazine-3-carboxamide] | – | > 10 |
| CC[C@@H]1C[C@H](NC(=O)c2c(C)oc3c2CCCC3)C[C@@H]1c1nnc2cnc3[nH]ccc3n12 [compound 35, N-((1S,3R,4S)-3-ethyl-4-(6H-pyrrolo[2,3-e][1,2,4]triazolo[4,3-a]pyrazin-1-yl)cyclopentyl)-2-methyl-4,5,6,7-tetrahydrobenzofuran-3-carboxamide] | 1 to 10 | – |
| C[C@@H]1C[C@@H](N2CCC(C#N)CC2)C[C@@H]1c1cnc2cnc3[nH]ccc3n12 [Example #8, 1-((1R,3S,4R)-3-(3H-imidazo[1,2-a]pyrrolo[2,3-e]pyrazin-8-yl)-4-methylcyclopentyl)piperidine-4-carbonitrile] | – | > 10 |
| CC[C@@H]1C[C@H](NC(=O)CNC(=O)c2cnoc2C)C[C@@H]1c1nnc2cnc3[nH]ccc3n12 [compound 38, N-(2-((1S,3R,4S)-3-ethyl-4-(6H-pyrrolo[2,3-e][1,2,4]triazolo[4,3-a]pyrazin-1-yl)cyclopentylamino)-2-oxoethyl)-5-methylisoxazole-4-carboxamide] | 1 to 10 | – |
| CC[C@@H]1C[C@@H](CCC#N)C[C@@H]1c1nnc2cnc3[nH]ccc3n12 [Example #23, 3-((1R,3R,4S)-3-ethyl-4-(6H-pyrrolo[2,3-e][1,2,4]triazolo[4,3-a]pyrazin-1-yl)cyclopentyl)propanenitrile] | – | 1 to 10 |
| CC[C@@H]1C[C@H](NC(=O)c2coc(C)n2)C[C@@H]1c1nnc2cnc3[nH]ccc3n12 [Example #24, N-((1S,3R,4S)-3-ethyl-4-(6H-pyrrolo[2,3-e][1,2,4]triazolo[4,3-a]pyrazin-1-yl)cyclopentyl)-2-methyloxazole-4-carboxamide] | – | 1 to 10 |
| CC[C@@H]1C[C@H](NC(=O)CN(C)C(=O)c2ccco2)C[C@@H]1c1nnc2cnc3[nH]ccc3n12 [compound 27, N-(2-((1S,3R,4S)-3-ethyl-4-(6H-pyrrolo[2,3-e][1,2,4]triazolo[4,3-a]pyrazin-1-yl)cyclopentylamino)-2-oxoethyl)-N-methylfuran-2-carboxamide] | > 10 | – |
| CC[C@@H]1C[C@H](NC(=O)/C=C/c2ccc(C)o2)C[C@@H]1c1nnc2cnc3[nH]ccc3n12 [compound 25, (E)-N-((1S,3R,4S)-3-ethyl-4-(6H-pyrrolo[2,3-e][1,2,4]triazolo[4,3-a]pyrazin-1-yl)cyclopentyl)-3-(5-methylfuran-2-yl)acrylamide] | 1 to 10 | – |
| C[C@@H]1C[C@@H](CCC#N)C[C@@H]1n1nnc2cnc3[nH]ccc3c21 [Example #11, 3-((1R,3R,4S)-3-methyl-4-(pyrrolo[2,3-b][1,2,3]triazolo[4,5-d]pyridin-1(6H)-yl)cyclopentyl)propanenitrile] | – | 1 to 10 |
| CC[C@@H]1C[C@H](NC(=O)c2conc2C)C[C@@H]1c1nnc2cnc3[nH]ccc3n12 [compound 34, N-((1S,3R,4S)-3-ethyl-4-(6H-pyrrolo[2,3-e][1,2,4]triazolo[4,3-a]pyrazin-1-yl)cyclopentyl)-3-methylisoxazole-4-carboxamide] | 1 to 10 | – |
| Cc1cnc(C(=O)N[C@H]2C[C@@H](C)[C@@H](c3cnc4cnc5[nH]ccc5n34)C2)cn1 [Example #1, N-((1S,3S,4R)-3-(3H-imidazo[1,2-a]pyrrolo[2,3-e]pyrazin-8-yl)-4-methylcyclopentyl)-5-methylpyrazine-2-carboxamide] | – | > 10 |
| C[C@@H]1CN(C(=O)NCC(F)F)C[C@@H]1c1cnc2cnc3[nH]ccc3n12 [Example 09, (3R,4S)—N-(2,2-difluoroethyl)-3-(3H-imidazo[1,2-a]pyrrolo[2,3-e]pyrazin-8-yl)-4-methylpyrrolidine-1-carboxamide] | – | 1 to 10 |
| CC[C@@H]1CN(C(=O)CCCC#N)C[C@@H]1c1cnc2cnc3[nH]ccc3n12 [Example #12] | – | 1 to 10 |
| C[C@@H]1CN(C(=O)CC2CC2)C[C@@H]1c1cnc2cnc3[nH]ccc3n12 [Example #21, 1-((3R,4S)-3-(3H-imidazo[1,2-a]pyrrolo[2,3-e]pyrazin-8-yl)-4-methylpyrrolidin-1-yl)-2-cyclopropylethanone] | – | 1 to 10 |
